Test results reported in US6987132B1, “Enediyne compounds and methods related thereto” (Advanced Research and Technology Institute, Inc., priority 2000, dated 2006).

Tests used:
[1] = Thermal cyclization temperature and stability of free ligands in solution; conditions: for could tolerate heating to (temperature): free ligand in solution; for thermal cyclization temperature in solution: absence of metal
[2] = Reactivity of enediyne ligand upon addition of metal salts at room temperature; assay type: physicochemical
[3] = Bergman enediyne cyclization temperature by differential scanning calorimetry (DSC) on neat materials; assay type: physicochemical; conditions: for Cyclization Temperature: free ligand, neat material, DSC, heating rate 10° C. min^−1; for Bergman cyclization temperature: comparison enediynes named in text, method not stated for them
Procedure: All preparations were carried out in an inert atmosphere (nitrogen) using Schlenk and drybox techniques. Chemicals used in the syntheses were of the highest purity available from Aldrich Chemical Company and used as received. Dichloromethane was dried and distilled from calcium hydride. The organic compounds were purified by flash chromatography with 60 Å Silica gel ([…]) using HPLC grade solvents. ^1H and ^13C NMR were recorded on VXR 400 MHz NMR spectrometer using the residual proton resonance as an internal reference. The multiplicity of the ^13C signals was determined by the DEPT technique. EI and FAB MS spectra were acquired on a Kratos MS-80 mass spectrometer that was interfaced with a Kratos DS90 data system. Differential scanning calorimetry traces were recorded on a General V4.1C DuPont 910 DSC differential scanning calorimeter coupled to a Dupont Thermal Analyst 2100 at a heating rate of 10° C. min^−1.

[4] = Pseudo first-order rate constant and half-life of thermal reactivity in DMSO by 1H NMR; assay type: physicochemical; conditions: 65° C., 20-fold cyclohexadiene
Source text: As is often observed in solution cyclization reactions of enediynes, a series of products was produced, which in this case included di-substituted benzenes, and as such no dominant species could be isolated from the reaction.

SMILES	could tolerate heating to (temperature) [1]	thermal cyclization temperature in solution [1]	Cyclization Temperature [3] [°C]	Bergman cyclization temperature [3] [°C]	further results
C(#CCN=Cc1ccccn1)/C=C\C#CCN=Cc1ccccn1 (stereo in doubt) [Compound 14, (Z)-N,N′-Bis[1-pyridin-2-yl-meth-(E)-ylidene]oct-4-ene-2,6-diyne-1,8-diamine]	about 50 °C	about 55 °C	100		time to reaction completion ([2]; addition of MgCl2, no additional heating): 2 h; time to reaction completion ([2]; addition of zinc acetate): 0.083 h; observation upon addition of Zn(II) or Cu(II) ([2]; room temperature): turned black instantaneously
C(#Cc1cccnc1)C=CC#Cc1cccnc1 [1,6-bis(pyridine-3)hex-3-ene-1,5-diyne, reference compound]				195	
CN(C)CC#CC=CC#CCN(C)C [Compound 4, 1,8-bis(dimethylamino)oct-4-ene-2,6-diyne]			186		
NCC#CC=CC#CCN [Compound 12, 1,8-diaminooct-4-ene-2,6-diyne]	about 50 °C	about 65 °C	106		pseudo first-order rate constant kobs [4]: 0.0416 h⁻¹; decrease in the Bergman cyclization temperature ([3]; relative to the preceding compound of the series 4, 9, 12): 37 °C
C(#CCOc1cccnc1)C=CC#CCOc1cccnc1 [bpod, 1,8-bis(pyridine-3-oxy)oct-4-ene-2,6-diyne, reference compound]				136	
